Test results: BindingDB's records for doi:10.1007/BF00173012 (Sandoz Pharma, 1994)
*1 amine or outer side, *2 acyl side, *3 side chain or, on linkers, in order; H or OH if unused. Where a SMILES comes first, the peptide text is derived from it. Bridges are numbered along the chain shown (N, C = ends). [ ]: non-standard residue; d: D form. Phe(4-Cl) = N[C@@H](Cc1ccc(Cl)cc1)C(=O)O; d2Nal = N[C@H](Cc1ccc2ccccc2c1)C(=O)O; X1 = O=C(C(N[*:1])S[*:3])[*:2]; Mpa = O=C(O)CCS

Assays:
[1] = molecular target: Somatostatin receptor type 2 (Mus musculus, UniProt P30875)
[2] = molecular target: Somatostatin receptor type 4 (Mus musculus, UniProt P49660)
[3] = molecular target: Somatostatin receptor type 1 (Homo sapiens, UniProt P30872)
[4] = molecular target: Somatostatin receptor type 3 (Mus musculus, UniProt P30935)
[5] = molecular target: T1, Somatostatin receptor type 5 (Rattus norvegicus, UniProt P30938)
T1 sequence (P30938 whole entry): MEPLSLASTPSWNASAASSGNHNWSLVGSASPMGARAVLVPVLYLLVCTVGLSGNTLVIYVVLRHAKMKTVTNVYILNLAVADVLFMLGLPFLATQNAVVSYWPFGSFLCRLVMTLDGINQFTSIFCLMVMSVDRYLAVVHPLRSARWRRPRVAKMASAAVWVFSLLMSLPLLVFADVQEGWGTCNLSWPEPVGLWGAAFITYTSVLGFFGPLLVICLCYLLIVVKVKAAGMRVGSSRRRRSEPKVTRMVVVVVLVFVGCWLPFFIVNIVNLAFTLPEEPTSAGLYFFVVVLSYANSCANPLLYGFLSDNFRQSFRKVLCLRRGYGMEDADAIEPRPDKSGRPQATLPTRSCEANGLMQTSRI

Chain of Somatostatin receptor type 4 (P49660 whole entry): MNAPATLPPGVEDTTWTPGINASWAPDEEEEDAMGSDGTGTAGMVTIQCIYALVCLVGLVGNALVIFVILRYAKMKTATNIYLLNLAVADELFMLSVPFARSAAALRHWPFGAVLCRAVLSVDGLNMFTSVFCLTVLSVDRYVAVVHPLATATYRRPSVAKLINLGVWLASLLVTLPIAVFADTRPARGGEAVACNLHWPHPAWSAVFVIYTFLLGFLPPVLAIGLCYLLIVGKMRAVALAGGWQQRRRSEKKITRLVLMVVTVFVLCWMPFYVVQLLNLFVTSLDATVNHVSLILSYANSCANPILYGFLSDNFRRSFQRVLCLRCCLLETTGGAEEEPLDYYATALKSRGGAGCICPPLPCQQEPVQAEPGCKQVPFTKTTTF
Chain of Somatostatin receptor type 2 (P30875 whole entry): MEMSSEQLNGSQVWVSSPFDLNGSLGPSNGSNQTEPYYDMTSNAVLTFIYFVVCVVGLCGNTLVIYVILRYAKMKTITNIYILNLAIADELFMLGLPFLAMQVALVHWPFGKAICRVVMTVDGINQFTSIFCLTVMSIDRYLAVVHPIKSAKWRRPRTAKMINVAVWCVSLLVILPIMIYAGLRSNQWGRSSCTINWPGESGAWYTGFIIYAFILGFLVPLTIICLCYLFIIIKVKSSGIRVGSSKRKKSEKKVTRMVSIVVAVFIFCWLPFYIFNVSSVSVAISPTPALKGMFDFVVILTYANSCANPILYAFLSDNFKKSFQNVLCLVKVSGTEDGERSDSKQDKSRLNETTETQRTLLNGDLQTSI
Chain of Somatostatin receptor type 3 (P30935 whole entry): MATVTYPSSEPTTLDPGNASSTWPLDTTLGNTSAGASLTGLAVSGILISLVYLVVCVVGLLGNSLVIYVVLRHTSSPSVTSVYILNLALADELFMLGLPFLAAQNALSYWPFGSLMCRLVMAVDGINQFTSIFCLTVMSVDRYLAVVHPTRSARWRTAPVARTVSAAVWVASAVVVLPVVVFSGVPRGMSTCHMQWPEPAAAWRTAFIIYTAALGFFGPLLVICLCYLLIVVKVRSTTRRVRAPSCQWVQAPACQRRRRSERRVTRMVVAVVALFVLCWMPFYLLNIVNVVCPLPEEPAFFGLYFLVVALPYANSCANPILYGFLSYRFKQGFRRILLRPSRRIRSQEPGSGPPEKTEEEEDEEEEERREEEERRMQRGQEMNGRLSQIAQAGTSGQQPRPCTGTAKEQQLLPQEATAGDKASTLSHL
Chain of Somatostatin receptor type 1 (P30872 whole entry): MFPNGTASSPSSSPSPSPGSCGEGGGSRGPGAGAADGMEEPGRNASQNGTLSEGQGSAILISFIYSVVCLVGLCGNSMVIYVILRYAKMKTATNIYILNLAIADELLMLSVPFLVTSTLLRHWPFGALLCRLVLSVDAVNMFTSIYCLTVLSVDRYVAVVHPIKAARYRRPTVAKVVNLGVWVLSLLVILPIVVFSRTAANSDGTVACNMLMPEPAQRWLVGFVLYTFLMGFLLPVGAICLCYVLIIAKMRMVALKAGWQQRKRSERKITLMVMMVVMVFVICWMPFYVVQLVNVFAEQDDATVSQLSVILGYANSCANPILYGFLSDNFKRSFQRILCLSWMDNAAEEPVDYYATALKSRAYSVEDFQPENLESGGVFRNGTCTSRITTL

Ki [1] [nM] | Ki [2] [nM] | Ki [3] [nM] | Ki [4] [nM] | Ki [5] [nM] | SMILES
0.01 | 1.81 |  |  |  | C[C@@H](O)[C@@H]1NC(=O)[C@H](Cc2ccccc2)NC(=O)[C@H]([C@@H](C)O)NC(=O)[C@H](CCCCN)NC(=O)[C@@H](Cc2c[nH]c3ccccc23)NC(=O)[C@H](Cc2ccccc2)NC(=O)[C@H](Cc2ccc(Cl)cc2)NC(=O)[C@H](CC(N)=O)NC(=O)[C@H](CCCCN)NC(=O)[C@@H](N)CSSC[C@@H](C(=O)O)NC(=O)[C@H](CO)NC1=O [EC5-21] (H-CKN[Phe(4-Cl)]F[dW]KTFTSC-OH; disulfide 1-12)
1 | 1.41 | 100 | 0.6 |  | C[C@@H](O)[C@@H]1NC(=O)[C@H](Cc2ccc(O)cc2)NC(=O)[C@H]([C@@H](C)O)NC(=O)[C@H](CCCCN)NC(=O)[C@H](Cc2c[nH]c3ccccc23)NC(=O)[C@H](Cc2ccccc2)NC(=O)[C@H](Cc2ccccc2)NC(=O)[C@H](CC(N)=O)NC(=O)[C@H](CCCCN)NC(=O)CCCCC[C@@H](C(=O)O)NC(=O)[C@H](CO)NC1=O [CGP-23996]
> 10000 | 158 | 1000 | 0.01 | 42.6 | CC(C)[C@H](NC(=O)[C@H](CCCCN)NC(=O)[C@@H](Cc1c[nH]c2ccccc12)NC(=O)[C@H](Cc1ccc(O)cc1)NC(=O)[C@H](Cc1ccccc1)NC(=O)[C@H](N)Cc1ccccc1)C(=O)N[C@@H](Cc1ccccc1)C(=O)N[C@H](Cc1ccc2ccccc2c1)C(N)=O [CAS_150155-61-6] (H-[dF]FY[dW]KVF[d2Nal]-NH2)
0.1 | 170 |  | 22.9 |  | CC(C)[C@@H]1NC(=O)[C@H](CCCCN)NC(=O)[C@@H](Cc2c[nH]c3ccccc23)NC(=O)[C@H](Cc2ccc(O)cc2)NC(=O)[C@@H](NC(=O)[C@H](N)Cc2ccccc2)CSSC[C@@H](C(=O)N[C@@H](Cc2c[nH]c3ccccc23)C(N)=O)NC1=O [CAS_71306] (H-[dF]CY[dW]KVCW-NH2; disulfide 2-7)

Second part, the compound before the results:

SMILES | Ki [1] [nM] | Ki [2] [nM] | Ki [3] [nM] | Ki [4] [nM] | Ki [5] [nM]
C[C@@H](O)[C@H](NC(=O)[C@@H]1CSSC[C@H](NC(=O)[C@H](N)Cc2ccc3ccccc3c2)C(=O)N[C@@H](Cc2ccc(O)cc2)C(=O)N[C@H](Cc2c[nH]c3ccccc23)C(=O)N[C@@H](CCCCN)C(=O)N[C@@H]([C@@H](C)O)C(=O)N1)C(N)=O [D-Nal-c[Cys-Tyr-D-Trp-Lys-Thr-Cys]-Thr-NH2] | 0.01 |  |  |  | 
CC(C)[C@@H]1NC(=O)[C@H](CCCCN)NC(=O)[C@@H](Cc2c[nH]c3ccccc23)NC(=O)[C@H](Cc2ccc(O)cc2)NC(=O)CCSSC(C(=O)N[C@@H](Cc2ccccc2)C(N)=O)NC1=O (some centres undefined) [CAS_117580-24-2] ([Mpa]Y[dW]KV[X1]F-NH2; disulfide 1-6) | 355 | 363 |  | 245 | 3.89
